In PubChem BioAssay (NCI):
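Exposure lasted 48 hours, with cells grown in 96-well plates and compounds tested at five concentrations. GI50 marks 50% less growth. Definition used: TGI = concentration required for complete inhibition of growth.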

Legend:
Experiment in all cases: NCI-60 cell line screen, 48 h
[1] = system: TK-10 renal
[2] = system: MDA-MB-435
[3] = system: COLO 205 colon
[4] = system: MDA-MB-231 breast
[5] = system: NCI/ADR-RES ovarian
[6] = system: HCT-15 colon
[7] = system: SK-MEL-28 melanoma
[8] = system: NCI-H460 lung
[9] = system: IGROV1 ovarian
[10] = system: MDA-MB-468 breast
[11] = system: A549 NSCLC
[12] = system: SK-OV-3 ovarian
[13] = system: UACC-257 melanoma
[14] = system: EKVX NSCLC
[15] = system: M14 melanoma
[16] = system: LOX IMVI melanoma
[17] = system: SW-620 colon
[18] = system: ACHN renal
[19] = system: UACC-62 melanoma
[20] = system: SF-539 CNS
[21] = system: OVCAR-8 ovarian
[22] = system: U251 CNS
[23] = system: A498 renal
[24] = system: MCF7 breast
[25] = system: SF-295 CNS
[26] = system: HS 578T breast
[27] = system: SK-MEL-2 melanoma
[28] = system: 786-0 renal
[29] = system: HCT-116 colon
[30] = system: RXF 393 renal
[31] = system: BT-549 breast
[32] = system: NCI-H23 lung
[33] = system: NCI-H226 lung
[34] = system: CAKI-1 renal
[35] = system: HOP-92 NSCLC
[36] = system: NCI-H522 lung
[37] = system: HOP-62 NSCLC
[38] = system: DU-145 prostate
[39] = system: SNB-75 CNS
[40] = system: SN12C renal
[41] = system: SK-MEL-5 melanoma
[42] = system: OVCAR-5 ovarian
[43] = system: MALME-3M melanoma
[44] = system: PC-3 prostate
[45] = system: T-47D breast
[46] = system: UO-31 renal
[47] = system: HCC-2998 colon
[48] = system: SNB-19 CNS
[49] = system: K-562 leukemia
[50] = system: SF-268 CNS
[51] = system: KM12 colon
[52] = system: SR leukemia
[53] = system: HT29 colon
[54] = system: OVCAR-4 ovarian
[55] = system: MOLT-4 leukemia
[56] = system: RPMI-8226 leukemia
[57] = system: CCRF-CEM leukemia
[58] = system: HL-60(TB) leukemia
[59] = system: OVCAR-3 ovarian

O=C(CCl)Nc1ccc(C(=O)/C=C/c2cc3ccccc3nc2Cl)cc1
GI50 [1]: 1.95 µM
TGI [1]: 4.58 µM
GI50 [2]: 1.12 µM
TGI [2]: 2.35 µM
GI50 [3]: 1.75 µM
TGI [3]: 3.23 µM
GI50 [4]: 1.69 µM
TGI [4]: 3.07 µM
GI50 [5]: 2.16 µM
TGI [5]: 4.81 µM
GI50 [6]: 1.24 µM
TGI [6]: 2.61 µM
GI50 [7]: 1.88 µM
TGI [7]: 3.66 µM
GI50 [8]: 1.72 µM
TGI [8]: 3.33 µM
GI50 [9]: 1.58 µM
TGI [9]: 3.16 µM
GI50 [10]: 1.47 µM
TGI [10]: 2.92 µM
GI50 [11]: 1.78 µM
TGI [11]: 3.48 µM
GI50 [12]: 3.63 µM
TGI [12]: 12.1 µM
GI50 [13]: 1.62 µM
TGI [13]: 3.23 µM
GI50 [14]: 1.82 µM
TGI [14]: 3.52 µM
GI50 [15]: 1.57 µM
TGI [15]: 3.04 µM
GI50 [16]: 0.221 µM
TGI [16]: 0.626 µM
GI50 [17]: 0.523 µM
TGI [17]: 1.83 µM
GI50 [18]: 1.72 µM
TGI [18]: 3.09 µM
GI50 [19]: 1.53 µM
TGI [19]: 2.9 µM
GI50 [20]: 1.67 µM
TGI [20]: 3.03 µM
GI50 [21]: 1.89 µM
TGI [21]: 4.08 µM
GI50 [22]: 1.11 µM
TGI [22]: 2.35 µM
GI50 [23]: 12.7 µM
TGI [23]: 25.6 µM
GI50 [24]: 0.294 µM
TGI [24]: 1.43 µM
GI50 [25]: 1.62 µM
TGI [25]: 3.07 µM
GI50 [26]: 1.98 µM
TGI [26]: 5.22 µM
GI50 [27]: 2.14 µM
TGI [27]: 5.67 µM
GI50 [28]: 1.71 µM
TGI [28]: 3.13 µM
GI50 [29]: 0.175 µM
TGI [29]: 0.319 µM
GI50 [30]: 1.56 µM
TGI [30]: 2.98 µM
GI50 [31]: 1.21 µM
TGI [31]: 2.48 µM
GI50 [32]: 1.51 µM
TGI [32]: 2.89 µM
GI50 [33]: 1.9 µM
TGI [33]: 4.82 µM
GI50 [34]: 1.61 µM
TGI [34]: 2.98 µM
GI50 [35]: 1.89 µM
TGI [35]: 3.83 µM
GI50 [36]: 1.55 µM
TGI [36]: 3.02 µM
GI50 [37]: 2.07 µM
TGI [37]: 3.84 µM
GI50 [38]: 1.76 µM
TGI [38]: 3.17 µM
GI50 [39]: 1.29 µM
TGI [39]: 2.66 µM
GI50 [40]: 1.54 µM
TGI [40]: 2.89 µM
GI50 [41]: 1.55 µM
TGI [41]: 2.93 µM
GI50 [42]: 1.8 µM
TGI [42]: 3.26 µM
GI50 [43]: 1.67 µM
TGI [43]: 3.22 µM
GI50 [44]: 1.73 µM
TGI [44]: 3.47 µM
GI50 [45]: 1.8 µM
TGI [45]: 3.95 µM
GI50 [46]: 1.41 µM
TGI [46]: 2.71 µM
GI50 [47]: 1.58 µM
TGI [47]: 2.96 µM
GI50 [48]: 1.66 µM
TGI [48]: 3.13 µM

COc1ccc(N(C)c2cc(C#N)nc3ccccc23)cc1N
GI50 [1]: 19.6 µM
TGI [1]: > 100 µM
GI50 [2]: < 0.01 µM
TGI [2]: < 0.01 µM
GI50 [49]: < 0.01 µM
TGI [49]: > 100 µM
GI50 [4]: < 0.01 µM
TGI [4]: < 0.01 µM
GI50 [50]: < 0.01 µM
TGI [50]: > 100 µM
GI50 [51]: < 0.01 µM
TGI [51]: > 45.4 µM
GI50 [5]: < 0.01 µM
TGI [5]: < 0.01 µM
GI50 [6]: < 0.01 µM
GI50 [52]: < 0.01 µM
TGI [52]: > 73.9 µM
TGI [7]: > 100 µM
GI50 [53]: < 0.01 µM
TGI [53]: < 0.01 µM
GI50 [8]: < 0.01 µM
TGI [8]: 4.56 µM
GI50 [9]: < 0.01 µM
TGI [9]: > 100 µM
GI50 [11]: < 0.01 µM
TGI [11]: > 100 µM
GI50 [12]: < 0.0187 µM
TGI [12]: > 100 µM
GI50 [13]: 8.62 µM
TGI [13]: > 100 µM
GI50 [14]: < 0.01 µM
TGI [14]: > 100 µM
GI50 [15]: < 0.01 µM
TGI [15]: > 100 µM
GI50 [16]: < 0.01 µM
TGI [16]: > 64.2 µM
GI50 [17]: < 0.01 µM
TGI [17]: > 100 µM
GI50 [18]: < 0.01 µM
TGI [18]: > 100 µM
GI50 [19]: < 0.01 µM
TGI [19]: > 100 µM
GI50 [54]: 3.69 µM
TGI [54]: > 100 µM
GI50 [20]: < 0.01 µM
TGI [20]: < 0.01 µM
GI50 [22]: < 0.01 µM
TGI [22]: > 100 µM
GI50 [23]: 83.4 µM
TGI [23]: > 100 µM
GI50 [24]: < 0.01 µM
TGI [24]: > 100 µM
GI50 [25]: < 0.01 µM
TGI [25]: > 100 µM
GI50 [26]: < 0.01 µM
TGI [26]: > 100 µM
GI50 [27]: < 0.01 µM
GI50 [28]: < 0.01 µM
TGI [28]: > 100 µM
GI50 [55]: < 0.01 µM
TGI [55]: > 60.6 µM
GI50 [29]: < 0.01 µM
TGI [29]: 1.53 µM
GI50 [30]: < 0.01 µM
TGI [30]: > 100 µM
GI50 [31]: < 0.01 µM
GI50 [56]: < 0.01 µM
TGI [56]: > 54.1 µM
GI50 [32]: < 0.01 µM
TGI [32]: > 54.1 µM
GI50 [33]: < 0.01 µM
TGI [33]: > 100 µM
GI50 [34]: < 0.01 µM
TGI [34]: > 100 µM
TGI [35]: > 76.2 µM
GI50 [36]: < 0.01 µM
TGI [36]: < 0.01 µM
GI50 [37]: < 0.01 µM
TGI [37]: > 100 µM
GI50 [38]: < 0.01 µM
TGI [38]: > 100 µM
GI50 [39]: < 0.01 µM
TGI [39]: > 67.7 µM
GI50 [40]: < 0.01 µM
TGI [40]: > 34.3 µM
GI50 [57]: < 0.01 µM
TGI [57]: > 37.1 µM
GI50 [41]: < 0.01 µM
TGI [41]: < 0.01 µM
GI50 [58]: < 0.01 µM
TGI [58]: < 0.01 µM
GI50 [42]: < 0.01 µM
TGI [42]: > 100 µM
GI50 [43]: < 0.01 µM
TGI [43]: > 84.6 µM
GI50 [44]: < 0.01 µM
TGI [44]: > 100 µM
GI50 [45]: 7.61 µM
TGI [45]: > 100 µM
GI50 [46]: < 0.01 µM
TGI [46]: > 100 µM
GI50 [47]: < 0.01 µM
TGI [47]: 0.131 µM
GI50 [48]: < 0.01 µM
TGI [48]: > 100 µM

COc1cc2oc(-c3cccc(C(=O)Nc4cccc([N+](=O)[O-])c4)c3)cc(=O)c2c(OC)c1OC
GI50 [1]: 11.5 µM
TGI [1]: 60.8 µM
GI50 [3]: > 100 µM
TGI [3]: > 100 µM
GI50 [4]: 4.26 µM
TGI [4]: > 100 µM
GI50 [50]: 3.49 µM
TGI [50]: > 100 µM
GI50 [6]: 5.25 µM
TGI [6]: > 100 µM
GI50 [8]: 3.87 µM
TGI [8]: > 100 µM
GI50 [9]: 7.99 µM
TGI [9]: > 100 µM
GI50 [11]: 4.94 µM
TGI [11]: > 100 µM
GI50 [12]: 4.26 µM
TGI [12]: > 100 µM
GI50 [14]: 7.32 µM
TGI [14]: > 100 µM
GI50 [15]: > 100 µM
TGI [15]: > 100 µM
GI50 [16]: 5.73 µM
TGI [16]: > 100 µM
GI50 [18]: 3.22 µM
TGI [18]: > 100 µM
GI50 [19]: 4.92 µM
TGI [19]: > 100 µM
GI50 [54]: 2.72 µM
TGI [54]: 9.09 µM
GI50 [20]: 4.4 µM
TGI [20]: 41.7 µM
GI50 [22]: 6.69 µM
TGI [22]: > 100 µM
GI50 [23]: 34.9 µM
TGI [23]: > 100 µM
GI50 [24]: 3.8 µM
TGI [24]: > 100 µM
GI50 [25]: 2.51 µM
TGI [25]: 6.9 µM
GI50 [26]: 2.51 µM
TGI [26]: 7.23 µM
GI50 [27]: 11.9 µM
TGI [27]: > 100 µM
GI50 [28]: 3.68 µM
TGI [28]: 21.7 µM
GI50 [55]: > 100 µM
TGI [55]: > 100 µM
GI50 [29]: 3.57 µM
TGI [29]: > 100 µM
GI50 [30]: 2.28 µM
TGI [30]: 18.8 µM
GI50 [31]: 2.46 µM
TGI [31]: 8.09 µM
GI50 [56]: 2.88 µM
TGI [56]: > 100 µM
GI50 [32]: 22.5 µM
TGI [32]: > 100 µM
GI50 [33]: 2.29 µM
TGI [33]: 7.38 µM
GI50 [34]: 2.86 µM
TGI [34]: 10.9 µM
GI50 [35]: 5.46 µM
TGI [35]: 42.4 µM
GI50 [36]: 3.14 µM
TGI [36]: 23.2 µM
GI50 [37]: 6.31 µM
TGI [37]: 33.6 µM
GI50 [38]: 4.77 µM
TGI [38]: > 100 µM
GI50 [39]: 1.99 µM
TGI [39]: 6.08 µM
GI50 [40]: 3.36 µM
TGI [40]: > 100 µM
GI50 [41]: 5.17 µM
TGI [41]: > 100 µM
GI50 [58]: > 100 µM
TGI [58]: > 100 µM
GI50 [42]: > 100 µM
TGI [42]: > 100 µM
GI50 [44]: 3.55 µM
TGI [44]: > 100 µM
GI50 [45]: 3.56 µM
TGI [45]: > 100 µM
GI50 [59]: 4.44 µM
TGI [59]: > 100 µM
GI50 [48]: 6.91 µM
TGI [48]: 68.9 µM
